According to patent publication US20200038420A1, “AMINOSTEROL COMPOSITIONS AND METHODS OF USING THE SAME FOR TREATING DEPRESSION” (Enterin, Inc., priority 2018, published 2020):
Entries after “also recorded” stand apart in the source; their conditions may differ. Where a name gives a salt, the structure may show the parent alone. Read-outs that look alike come from different tables or passages of the source.

Tests used:
[1] = mice; into the duodenum through the biliary tract; cited from earlier work
C. elegans αS model = conditions: cited from earlier work; for Formation of αS aggregates: in vivo, C. elegans model of PD
αS = αS (Homo sapiens, UniProt P37840); conditions: in vitro; cited from earlier work
[2] = system: patients with PD and constipation; experiment: Adverse events, Phase 2 trial Stage 2 (daily oral dosing); type: in vivo, human; conditions: Stage 2 (34 dosed), daily oral doses 75-250 mg
Method: (§1) In Stage 2, 34 patients were evaluated.

[3] = system: patients with PD and constipation; experiment: CNS / neurological symptoms, Stage 2 (UPDRS, MMSE, PDHQ, BDI-II); type: in vivo, human
Text: Exploratory end-points, in addition to constipation, included for example, (i) depression assessed using the Beck Depression Inventory (BDI-II) (Steer et al. 2000) and Unified Parkinson's Disease Rating Scale (UPDRS); (ii) cognition assessed using the Mini Mental State Examination (MMSE) (Palsteia et al. 2018), Unified Parkinson's Disease Rating Scale (UPDRS), and Trail Making Test (TMT); (iii) sleep and REM-behavior disorder (RBD) using a daily sleep diary, I-Button Temperature Assessment, a REM sleep behavior disorder (RBD) questionnaire (RBDQ) (Stiasny-Kolster et al. 2007), and the UPDRS; (iv) hallucinations assessed using the PD hallucinations questionnaire (PDHQ) (Papapetropoulos et al. 2008), the UPDRS, and direct questioning; (v) fatigue using the Parkinson's Disease Fatigue Scale (PFS-16) and the UPDRS; (vi) motor functions using the UPDRS; and (vii) non-motor functions using the UPDRS.
(§2) Assessments were made at baseline and at the end of the fixed dose and washout periods. Circadian system status was evaluated by continuously monitoring wrist skin temperature (Thermochron iButton DS1921H; Maxim, Dallas) following published procedures (Sarabia et al. 2008).
An exploratory analysis was done with respect to the sleep data, the body temperature data, mood, fatigue, hallucinations, cognition and other motor and non-motor symptoms of PD. […]

[4] = system: patients with PD and constipation; experiment: Bowel function / stool related indices, Stage 2; type: in vivo, human; conditions: Stage 2 (daily dosing), at 75 mg
Method: Following successful screening, all subjects underwent a 14-day run-in period where the degree of constipation was assessed through a validated daily log (Zinsmeister et al. 2013) establishing baseline CSBMs/week. Subjects with an average of <3 CSBMs/week proceeded to dosing.
as §1
The primary efficacy outcome variable was whether or not a subject was a “success” or “failure”. This is an endpoint based on subject diary entries for the “fixed dose” period prior to the endpoint assessment defined as average complete stool frequency increase by 1 or more over baseline, or 3 or more complete spontaneous stools/week. The subject was deemed a “success” if s/he met one or more of the criteria listed above, otherwise the subject was deemed a “failure”. The primary analysis was based on all subjects with a baseline assessment and an assessment at the end of the “fixed-dose” period and was a comparison of the proportion of successes with 0.10 (the null hypothesis corresponding to no treatment effect).

[5] = system: patients with PD and constipation; experiment: Prokinetic response (CSBM within 24 hours of dosing), Stage 1; type: in vivo, human; conditions: Stage 1 (single dose)
Text: (§3) Tolerability limits included diarrhea or vomiting.

[6] = system: patients with PD and constipation; experiment: Circadian rhythm of wrist skin temperature; type: in vivo, human; conditions: 12 patients
Method: (6) I-Button Temperature Assessment. The I-Button is a small, rugged self-sufficient system that measures temperature and records the results in a protected memory section. The Thermochron I-Button DS1921H (Maxim Integrated, Dallas, Tex.) was used for skin temperature measurement. I-Buttons were programmed to sample every 10 mins., and attached to a double-sided cotton sport wrist band using Velcro, with the sensor face of the I-Button placed over the inside of the wrist, on the radial artery of the dominant hand. Subjects removed and replaced the data logger when necessary (i.e., to have a bath or shower). […] From the collected data, the mesor, amplitude, acrophase (time of peak temperature), Rayleight test (an index of interdaily stability), mean waveforms are calculated.);
as §2
Circadian rhythm of skin temperature was evaluable in 12 patients (i.e., those who had recordings that extended from baseline through washout). Circadian system functionality was evaluated by continuously monitoring wrist skin temperature using a temperature sensor (Thermochron iButton DS1921H; Maxim, Dallas, Tex.) (Sarabia et al. 2008). […]

[7] = Oral bioavailability in PD patients (oral PK compared with prior IV PK); type: in vivo, human; conditions: this study
Method: PK data were collected on the 10 patients enrolled in Stage 1 and 10 patients enrolled in Stage 2 to determine the extent of systemic absorption. In Stage 1, PK data were obtained at each visit, pre-medication, at 1, 2, 4, 8 and 24 hours (Table 10). In Stage 2, PK was measured on days 1 and 6 of the randomization period pre-medication, at 1, 2, 4 and 8 hours (Table 11).

[8] = cited from earlier work
[9] = system: patients with PD and constipation; experiment: Adverse events, Phase 2 trial Stage 1 (single escalating oral doses); type: in vivo, human; conditions: Stage 1 (10 dosed), single escalating oral doses 25-200 mg
Text: as §3

[10] = system: IPANs (intrinsic primary afferent neuron); conditions: perfusion through the lumen of isolated bowel segment; increased frequency of propulsive peristaltic contractions; cited from earlier work
mouse models of PD = conditions: cited from earlier work

CC(C)[C@@H](CC[C@@H](C)[C@H]1CC[C@H]2[C@@H]3[C@H](O)C[C@H]4C[C@@H](NCCCNCCCCN)CC[C@]4(C)[C@H]3CC[C@]12C)OS(=O)(=O)O (single isomer, unassigned) [squalamine (ENT-01), squalamine]
Clearance and excretion following systemic administration [1]: cleared by the liver and excreted as the intact molecule | Muscle paralysis / motor dysfunction (C. elegans αS model; C. elegans αS model): reverses motor dysfunction; also recorded: complete reversal of muscle paralysis | Formation of αS aggregates (C. elegans αS model; listed as ENT-01): inhibit the formation of aggregates of αS | Formation of αS aggregates (C. elegans αS model; listed as squalamine): inhibits the formation of αS aggregates | Formation of αS aggregates (αS): inhibits the formation of αS aggregates | Diarrhea, Mild [2]: 12(35)^ n, % | Difficulty falling asleep, Mild [2]: 1(3)^ n, % | Difficulty falling asleep, Moderate [2]: 0 n, % | Eye infection, Mild [2]: 1(3)^ n, % | Eye infection, Moderate [2]: 0 n, % | Flatulence, Mild [2]: 1(3)^ n, % | Flatulence, Moderate [2]: 0 n, % | Headache, Moderate [2]: 0 n, % | Increased urinary frequency, Moderate [2]: 0 n, % | Nausea, Mild [2]: 18(52)^ n, % | Skin lesions-rash, Moderate [2]: 0 n, % | Urinary retention, Mild [2]: 1(3)^ n, % | Urinary retention, Moderate [2]: 0 n, % | Urinary tract infection, Mild [2]: 1(3)^ n, % | Vomiting, Moderate [2]: 0 n, % | Worsening acid reflux, Moderate [2]: 0 n, % | Worsening hemorrhoid, Mild [2]: 1(3)^ n, % | Worsening hemorrhoid, Moderate [2]: 0 n, % | Blood in urine, Mild ([2]; unrelated to ENT-01): 0 n, % | Blood in urine, Moderate ([2]; unrelated to ENT-01): 0 n, % | Loss of appetite, Mild ([2]; unrelated to ENT-01): 0 n, % | Loss of appetite, Moderate ([2]; unrelated to ENT-01): 0 n, % | Patients in whom hallucinations and delusions improved or disappeared during treatment ([3]; Stage 2, 5 patients with hallucinations and 1 with delusions at baseline): 5 of 6 | Improvement of UPDRS Part 1 score ([3]; baseline 11.6 to wash-out 9.5): ~20% | Prokinetic response rate [4]: 26% | Cumulative prokinetic response rate ([5]; at 25 mg): 25% | Cumulative prokinetic response rate ([5]; maximum, at 200 mg): 80% | Circadian rhythm parameters (IS, RA, CFI, IV) ([6]; fixed dose versus baseline): improved all markers of healthy circadian function | Circadian rhythm parameters (IS, CFI) ([6]; wash-out period): improvement persisted for several of these circadian parameters | Systemic absorption following oral administration [7]: not significantly absorbed into the systemic circulation | Systemic absorption following oral administration ([7]; listed as aminosterol): negligible | Gastrointestinal motility after intravenous administration ([8]; intravenous, prior studies): not associated with increased gastrointestinal motility | Systemic blood levels, intravenous versus orally administered squalamine ([8]; prior studies): one thousand-fold greater | Abdominal pain, Mild [9]: 2(20) n, % | Abdominal pain, Moderate [9]: 3(30) n, % | Diarrhea, Mild [9]: 1(10) n, % | Diarrhea, Moderate [9]: 3(30) n, % | Diarrhea, Severe [9]: 0 n, % | Difficulty falling asleep, Mild [9]: 0 n, % | Difficulty falling asleep, Moderate [9]: 0 n, % | Dizziness, Mild [9]: 0 n, % | Dizziness, Moderate [9]: 0 n, % | Eye infection, Mild [9]: 0 n, % | Eye infection, Moderate [9]: 0 n, % | Flatulence, Mild [9]: 2(20) n, % | Flatulence, Moderate [9]: 0 n, % | Headache, Mild [9]: 1(10) n, % | Headache, Moderate [9]: 0 n, % | Increased urinary frequency, Mild [9]: 0 n, % | Increased urinary frequency, Moderate [9]: 0 n, % | Nausea, Mild [9]: 4(40) n, % | Nausea, Moderate [9]: 0 n, % | Skin lesions-rash, Mild [9]: 0 n, % | Skin lesions-rash, Moderate [9]: 0 n, % | Urinary retention, Mild [9]: 0 n, % | Urinary retention, Moderate [9]: 0 n, % | Urinary tract infection, Mild [9]: 0 n, % | Urinary tract infection, Moderate [9]: 0 n, % | Vomiting, Mild [9]: 1(10) n, % | Vomiting, Moderate [9]: 0 n, % | Worsening acid reflux, Mild [9]: 0 n, % | Worsening acid reflux, Moderate [9]: 0 n, % | Worsening hemorrhoid, Mild [9]: 0 n, % | Worsening hemorrhoid, Moderate [9]: 0 n, % | Blood in urine, Mild ([9]; unrelated to ENT-01): 1(10) n, % | Blood in urine, Moderate ([9]; unrelated to ENT-01): 0 n, % | Loss of appetite, Mild ([9]; unrelated to ENT-01): 1(10) n, % | Loss of appetite, Moderate ([9]; unrelated to ENT-01): 0 n, % | Lower GI bleed, Severe ([9]; unrelated to ENT-01): 0 n, % | Effect on enteric sensory neurons [10]: excitation of IPANs | Gastro-intestinal motility (mouse models of PD; oral, mice with constipation due to overexpression of human αS): stimulates gastro-intestinal motility | Gastrointestinal motility / dysmotility (mouse models of PD; several mouse models of PD): restores gastrointestinal motility; also recorded: reverse gastrointestinal dysmotility

CC(C)[C@@H](CC[C@@H](C)[C@H]1CC[C@H]2[C@@H]3[C@H](O)C[C@H]4C[C@@H](NCCCNCCCCN)CC[C@]4(C)[C@H]3CC[C@]12C)OS(=O)(=O)O [Squalamine dilactate salt]
Well tolerated dose, single and repeat intravenous administration ([8]; intravenous, alone or in combination with other agents, Phase 1 and Phase 2 trials): at least 300 mg/m^2
